# Counter-ions that a name gives are not always drawn.
# Molecular target: T1, human TRPM8 (Homo sapiens, UniProt Q7Z2W7)
# T1 construct: expressed in transfected cells; host or cells: HEK293
# Assay: Menthol-induced Ca2+ influx in HEK293 cells stably expressing human TRPM8
# Type: cell-based
# Conditions: 30 microM menthol-induced Ca2+ influx, read-out: IC50 against TRPM8
# In short: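 HEK293 cells stably expressing human TRPM8 were loaded with Fluo4-AM for 1 h at room temperature, preincubated 5 min with compound, then challenged with 30 microM menthol. Calcium rise was read by FDSS imaging. IC50 came from 11-point curves using duplicate-well means.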
# T1 sequence (Q7Z2W7 whole entry): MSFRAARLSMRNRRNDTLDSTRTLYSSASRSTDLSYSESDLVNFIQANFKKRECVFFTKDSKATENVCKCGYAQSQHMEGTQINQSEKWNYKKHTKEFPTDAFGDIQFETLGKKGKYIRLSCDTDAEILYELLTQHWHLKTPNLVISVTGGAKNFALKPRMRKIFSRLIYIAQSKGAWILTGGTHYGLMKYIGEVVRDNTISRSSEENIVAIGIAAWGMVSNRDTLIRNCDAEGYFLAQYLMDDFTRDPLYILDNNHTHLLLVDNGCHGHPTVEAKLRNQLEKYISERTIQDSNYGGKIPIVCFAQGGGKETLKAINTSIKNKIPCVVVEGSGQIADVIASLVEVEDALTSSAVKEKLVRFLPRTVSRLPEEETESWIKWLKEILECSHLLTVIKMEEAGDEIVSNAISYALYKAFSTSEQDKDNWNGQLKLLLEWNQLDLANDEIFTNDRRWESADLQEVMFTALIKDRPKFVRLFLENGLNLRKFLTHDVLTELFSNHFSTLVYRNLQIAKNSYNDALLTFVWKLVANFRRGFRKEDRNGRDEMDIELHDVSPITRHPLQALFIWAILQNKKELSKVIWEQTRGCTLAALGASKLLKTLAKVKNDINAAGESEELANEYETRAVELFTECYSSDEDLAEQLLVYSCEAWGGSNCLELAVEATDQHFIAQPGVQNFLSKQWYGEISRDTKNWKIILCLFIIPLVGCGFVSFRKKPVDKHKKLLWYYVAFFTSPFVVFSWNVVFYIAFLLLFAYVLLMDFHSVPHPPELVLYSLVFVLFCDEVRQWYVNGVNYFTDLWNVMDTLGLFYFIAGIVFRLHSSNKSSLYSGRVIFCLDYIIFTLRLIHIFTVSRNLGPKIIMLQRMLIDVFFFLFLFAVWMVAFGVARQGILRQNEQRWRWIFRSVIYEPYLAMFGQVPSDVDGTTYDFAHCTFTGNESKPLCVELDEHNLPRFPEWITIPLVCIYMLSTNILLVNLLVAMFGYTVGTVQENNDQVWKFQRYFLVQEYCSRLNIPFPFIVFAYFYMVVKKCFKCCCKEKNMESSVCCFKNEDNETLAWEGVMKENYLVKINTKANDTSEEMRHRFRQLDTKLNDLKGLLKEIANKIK
row,IC50 [nM],SMILES
1,< 100,"NCc1ccccc1-c1ccc(C(=O)CN2C(=O)NC3(CCC(F)(F)CC3)C2=O)cc1 [Example 6-55, 3-(2-(2′-(aminomethyl)-[1,1′-biphenyl]-4-yl)-2-oxoethyl)-8,8-difluoro-1,3-diazaspiro[4.5]decane-2,4-dione hydrochloride]"
2,< 100,Cc1cc(C(=O)CN2C(=O)NC3(CCC(F)(F)CC3)C2=O)ccc1-c1ccccc1C#N [Example 13-9]
3,< 500,Cc1nc2c(-c3ccc(C(=O)CN4C(=O)NC5(CCC(F)(F)CC5)C4=O)cc3)cccc2[nH]1 [Example 6-65]
4,< 500,Cc1c(C(=O)CN2C(=O)NC3(CCCCC3)C2=O)nn(C)c1-c1cccnc1 [Example 4-8]
5,< 100,Cc1nc(C(=O)CN2C(=O)NC3(CCC(F)(F)CC3)C2=O)n(C)c1-c1ccccc1 [Example 17-7]
6,< 500,O=C(CN1C(=O)NC2(CCCCC2)C1=O)c1ccc(OCCNc2ccccc2)nc1 [Example 20-4]
7,< 500,Cc1cccnc1-c1ccc(C(=O)CN2C(=O)NC3(CCC(F)(F)CC3)C2=O)cc1 [Example 6-82]
8,< 100,Cc1cccc(-n2c(C)nc(C(=O)CN3C(=O)NC4(CCCCC4)C3=O)c2C)c1 [Example 2-13]
9,< 100,O=C(CN1C(=O)NC2(CCC(F)(F)CC2)C1=O)c1ccc(-c2ccccc2CO)nc1 [Example 9-17]
10,< 500,Cc1nc2cccnc2n1-c1ccc(C(=O)CN2CC3(CCC(F)(F)CC3)OC2=O)cc1 [Example 22-2]
11,< 500,Cc1c(C(=O)CN2C(=O)NC3(CCC(F)(F)CC3)C2=O)nn(C)c1-c1cccnc1 [Example 4-7]
12,< 100,O=C(CN1CC2(CCC(F)(F)CC2)OC1=O)c1ccc(-c2ccccc2CO)cc1 [Example 13-55]
13,< 100,O=C(CN1C(=O)NC2(CCC(F)(F)CC2)C1=O)c1ccc(-c2cccc3cccnc23)cc1 [Example 13-46]
14,< 100,Cc1sc(C(=O)CN2C(=O)NC3(CCC(F)(F)CC3)C2=O)c(C)c1-c1cncnc1 [Example 15-5]
15,< 500,"NCc1ncccc1-c1ccc(C(=O)CN2C(=O)NC3(CCC(F)(F)CC3)C2=O)cc1 [Example 6-56, 3-(2-(4-(2-(aminomethyl)pyridin-3-yl)phenyl)-2-oxoethyl)-8,8-difluoro-1,3-diazaspiro[4.5]decane-2,4-dione]"
16,< 100,Cc1cc(C(=O)CN2C(=O)NC3(CCC(F)(F)CC3)C2=O)n(C)c1-c1cccc(C(N)=O)c1 [Example 16-6]
17,< 500,Cc1nc(C(=O)CN2C(=O)NC3(CCC(F)(F)CC3)C2=O)n(C)c1-c1cccnc1 [Example 17-12]
18,< 100,Nc1ncccc1-c1ccc(C(=O)CN2C(=O)NC3(CCCCC3)C2=O)cc1 [Example 7-13]
19,< 100,Cc1ncccc1-c1ccc(C(=O)CN2C(=O)OC3(CCC(F)(F)CC3)C2=O)cc1 [Example 13-72]
20,< 100,O=C(CN1C(=O)NC2(CCC(F)(F)CC2)C1=O)c1ccc(Oc2cccnn2)cc1 [Example 5-22]
21,< 100,O=C(CN1C(=O)NC2(CCC(F)(F)CC2)C1=O)c1ccc(-c2cccc3ccncc23)c(Cl)c1 [Example 13-29]
22,< 100,Cc1cc(C(=O)CN2C(=O)NC3(CCC(F)(F)CC3)C2=O)n(C)c1-c1ccccc1 [Example 4-3]
23,< 500,Cc1cccc(Oc2ccc(C(=O)CN3C(=O)NC4(CCCCC4)C3=O)cn2)c1 [Example 20-3]
24,< 100,Cc1cc(C(=O)CN2C(=O)NC3(CCC(F)(F)CC3)C2=O)n(C)c1-c1ccccc1CO [Example 16-8]

row,IC50 [nM],SMILES
1,< 100,Cc1nc2cccnc2n1-c1ccc(C(=O)CN2C(=O)NC3(CCCCC3)C2=O)cn1 [Example 5-33]
2,< 100,Cc1ccccc1-c1cnc(C(=O)CN2C(=O)NC3(CCC(F)(F)CC3)C2=O)cn1 [Example 12-2]
3,< 100,Cc1cc(C(=O)CN2C(=O)NC3(CCCCC3)C2=O)cnc1-c1ccccc1 [Example 11-2]
4,< 10,"Cc1nc2ccc(C#N)nc2n1-c1ccc(C(=O)CN2C(=O)NC3(CCC(F)(F)CC3)C2=O)cc1 [Example 27-1, 3-(4-(2-(8,8-difluoro-2,4-dioxo-1,3-diazaspiro[4.5]decan-3-yl)acetyl)phenyl)-2-methyl-3H-imidazo[4,5-b]pyridine-5-carbonitrile]"
5,< 100,Cc1c(C(=O)CN2C(=O)NC3(CCCCC3)C2=O)nn(C)c1-c1ccccc1 [Example 4-2]
6,< 100,Cc1nc(C(=O)CN2C(=O)NC3(CCC(F)(F)CC3)C2=O)sc1-c1cccc(C#N)c1 [Example 18-3]
7,< 100,O=C(CN1C(=O)NC2(CCC(F)(F)CC2)C1=O)c1ccc(-c2cccc3cnccc23)nc1 [Example 9-21]
8,< 100,Cc1cc(C(=O)CN2C(=O)NC3(CCC(F)(F)CC3)C2=O)c(C)n1-c1ccccn1 [Example 3-12]
9,< 100,O=C(CN1C(=O)NC2(CCC(F)(F)CC2)C1=O)c1ccc(-c2ccccn2)cc1 [Example 13-49]
10,< 100,COc1ncccc1-c1cnc(C(=O)CN2C(=O)NC3(CCC(F)(F)CC3)C2=O)cn1 [Example 12-4]
11,< 100,Cc1nccnc1-c1ccc(C(=O)CN2C(=O)NC3(CCC(F)(F)CC3)C2=O)cc1F [Example 8-3]
12,< 100,O=C(CN1C(=O)NC2(CCC(F)(F)CC2)C1=O)c1ccc(-c2cccc3cccnc23)c(F)c1 [Example 13-21]
13,< 100,Cc1ccc2nc(C)n(-c3ccc(C(=O)CN4C(=O)NC5(CCCCCC5)C4=O)cc3)c2n1 [Example 5-30]
14,< 100,Cn1c(C(=O)CN2C(=O)NC3(CCC(F)(F)CC3)C2=O)nc(C2CC2)c1-c1ccccc1 [Example 17-4]
15,< 100,Cc1cc(C(=O)CN2C(=O)NC3(CCC(F)(F)CC3)C2=O)n(C)c1-c1cccc2ccncc12 [Example 16-15]
16,< 500,O=C(CN1C(=O)NC2(CCC(F)(F)CC2)C1=O)c1ccc(-c2cccc3c2C(O)CC3)cc1 (centres unmarked) [Example 6-50]
17,< 500,CCc1cc(C(=O)CN2C(=O)NC3(CCCCC3)C2=O)c(C)n1-c1cc(C)on1 [Example 1-14]
18,< 500,O=C(CN1C(=O)NC2(CCCCC2)C1=O)c1ccc(Oc2cccnc2)nc1 [Example 20-2]
19,< 100,COc1ccncc1-c1cnc(C(=O)CN2C(=O)NC3(CCC(F)(F)CC3)C2=O)cn1 [Example 12-5]
20,< 100,Cc1ccncc1-c1c(C)sc(C(=O)CN2C(=O)NC3(CCC(F)(F)CC3)C2=O)c1C [Example 15-4]
21,< 100,Cc1nc2cccnc2n1-c1ccc(C(=O)CN2C(=O)NC3(CCCCCC3)C2=O)cc1 [Example 5-32]
22,< 500,O=C1CCc2c(cccc2-c2ccc(C(=O)CN3C(=O)NC4(CCC(F)(F)CC4)C3=O)cc2)N1 [Example 6-52]
23,< 500,O=C(CN1C(=O)NC2(CCC(F)(F)CC2)C1=O)c1ccc(-c2ccnc3c2OCCO3)cc1 [Example 13-50]
24,< 500,Cc1ncccc1-c1sc(C(=O)CN2C(=O)NC3(CCC(F)(F)CC3)C2=O)nc1C [Example 18-8]

row,IC50 [nM],SMILES
1,< 100,O=C(CN1C(=O)NC2(CCC(F)(F)CC2)C1=O)c1ccc(-c2cnccc2C(F)(F)F)cc1 [Example 6-41]
2,< 100,Cc1cc(C(=O)CN2C(=O)NC3(CCCCC3)C2=O)sc1-c1cccnc1 [Example 14-1]
3,< 500,Cc1nc(C(=O)CN2C(=O)NC3(CCC(F)(F)CC3)C2=O)sc1-c1cccc(C(N)=O)c1 [Example 18-7]
4,< 100,Cc1nc(C(=O)CN2C(=O)OC3(CCC(F)(F)CC3)C2=O)c(C)n1-c1ccccc1 [Example 2-3]
5,< 100,Cn1c(-c2cccc(F)c2)cnc1C(=O)CN1C(=O)NC2(CCC(F)(F)CC2)C1=O [Example 17-1]
6,< 500,Cc1nc(C(=O)CN2C(=O)NC3(CCC(F)(F)CC3)C2=O)sc1-c1cncc(C#N)c1 [Example 18-13]
7,< 10,O=C(CN1C(=O)NC2(CCC(F)(F)CC2)C1=O)c1ccc(-c2cncc3[nH]ccc23)cc1 [Example 6-5]
8,< 100,CN(c1ccccn1)c1ccc(C(=O)CN2C(=O)NC3(CCCCC3)C2=O)cn1 [Example 19-2]
9,< 500,Cc1cccc(-c2cnc(C(=O)CN3C(=O)NC4(CCC(F)(F)CC4)C3=O)n2C)c1 [Example 17-14]
10,< 100,Cc1cc(C(=O)CN2C(=O)NC3(CCC(F)(F)CC3)C2=O)ccc1-c1cccc2c1CNC2=O [Example 13-10]
11,< 100,O=C(CN1C(=O)NC2(CCC(F)(F)CC2)C1=O)c1ccc(-n2c(C(F)F)nc3cccnc32)cc1 [Example 24-1]
12,< 10,O=C(CN1C(=O)NC2(CCC(F)(F)CC2)C1=O)c1ccc(-c2ncnc3[nH]ccc23)cc1 [Example 6-8]
13,< 100,Cc1cncc(-n2c(C)cc(C(=O)CN3C(=O)NC4(CCCCC4)C3=O)c2C)c1 [Example 3-11]
14,< 100,Cc1cc(C(=O)CN2C(=O)NC3(CCC(F)(F)CC3)C2=O)n(C)c1-c1cccc(F)c1 [Example 16-5]
15,< 100,O=C(CN1C(=O)NC2(CCC(F)(F)CC2)C1=O)c1cc(F)c(-c2ccccc2CO)c(F)c1 [Example 13-32]
16,< 100,O=C(CN1C(=O)NC2(CCC(F)(F)CC2)C1=O)c1ccc(-n2cnc3nccnc32)cc1 [Example 19-37]
17,< 100,O=C(CN1C(=O)NC2(CCC(F)(F)CC2)C1=O)c1cnc(-n2cnc3ccccc32)cn1 [Example 19-24]
18,< 100,O=C(CN1C(=O)NC2(CCC(F)(F)CC2)C1=O)c1ccc(Oc2ccccn2)nc1 [Example 20-6]
19,< 10,O=C(CN1C(=O)NC2(CCC(F)(F)CC2)C1=O)c1ccc(-n2cnc3cccnc32)cc1 [Example 5-9]
20,< 100,Cc1cccc(-n2c(C)cc(C(=O)CN3C(=O)NC4(CCC(F)(F)CC4)C3=O)c2C)n1 [Example 3-13]
21,< 100,Cc1nc2ccccc2n1-c1ccc(C(=O)CN2C(=O)NC3(CCC(F)(F)CC3)C2=O)cc1 [Example 5-8]
22,< 100,Cc1cccc(-n2c(C)cc(C(=O)CN3C(=O)NC4(CCC(C(F)(F)F)CC4)C3=O)c2C)n1 (centres unmarked) [Example 3-15]
23,< 500,Cc1ccc2nc(CN3CCCCC3)n(-c3ccc(C(=O)CN4C(=O)NC5(CCC(F)(F)CC5)C4=O)cc3)c2n1 [Example 25-3]

# — patent US10093678B2, “Azaspiro derivatives as TRPM8 antagonists” (RaQualia Pharma Inc., priority 2014, dated 2018)
